Measured values as given in PubChem BioAssay AID1963431 (Molecular Pharmacology Branch, DTP, NCI, 2024).

Test system: Rh18 complex spheroid viability, percent test/control
Assay: Anticancer human tumor Rh18 cell line growth inhibition [Asc];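 further: spheroids exposed to compound for 7 days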;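 on viability, T/C: 100% = DMSO vehicle control wells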
Settings: for IC50: curve of first compound; for viability, T/C: stronger effect = lower value
Method in brief: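 Tumor cells were grown as multicellular spheroids with stromal HUVEC and mesenchymal stem cells and treated singly or in combination. Concentrations fell in half-log steps from the clinical Cmax, or from 10 microM where none was known.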

[1] = second compound 0.01 µM, first compound 0.0316 µM
[2] = second compound 0.01 µM, first compound 0.1 µM
[3] = second compound 0.01 µM, first compound 0.316 µM
[4] = second compound 0.01 µM, first compound 1 µM
[5] = second compound 0.0316 µM, first compound 0.0316 µM
[6] = second compound 0.0316 µM, first compound 0.1 µM
[7] = second compound 0.0316 µM, first compound 0.316 µM
[8] = second compound 0.0316 µM, first compound 1 µM
[9] = second compound 0.1 µM, first compound 0.0316 µM
[10] = second compound 0.1 µM, first compound 0.1 µM
[11] = second compound 0.1 µM, first compound 0.316 µM
[12] = second compound 0.1 µM, first compound 1 µM
[13] = second compound 0.316 µM, first compound 0.0316 µM
[14] = second compound 0.316 µM, first compound 0.1 µM
[15] = second compound 0.316 µM, first compound 0.316 µM
[16] = second compound 0.316 µM, first compound 1 µM
[17] = second compound 1 µM, first compound 0.0316 µM
[18] = second compound 1 µM, first compound 0.1 µM
[19] = second compound 1 µM, first compound 0.316 µM
[20] = second compound 1 µM, first compound 1 µM
[21] = second compound 0.01 µM, first compound 0.00316 µM
[22] = second compound 0.01 µM, first compound 0.01 µM
[23] = second compound 0.0316 µM, first compound 0.00316 µM
[24] = second compound 0.0316 µM, first compound 0.01 µM
[25] = second compound 0.1 µM, first compound 0.00316 µM
[26] = second compound 0.1 µM, first compound 0.01 µM
[27] = second compound 0.316 µM, first compound 0.00316 µM
[28] = second compound 0.316 µM, first compound 0.01 µM
[29] = second compound 1 µM, first compound 0.00316 µM
[30] = second compound 1 µM, first compound 0.01 µM

C=CC(=O)N1CCN(c2nc(=O)n(-c3c(C)ccnc3C(C)C)c3nc(-c4c(O)cccc4F)c(F)cc23)C(C)C1 (stereo not given) + CNC(C)C(=O)NC1CN(S(=O)(=O)c2cccc(S(=O)(=O)N3CCC4CCC(C(=O)NC(c5ccccc5)c5ccccc5)N4C(=O)C(NC(=O)C(C)NC)C3)c2)CCC2CCC(C(=O)NC(c3ccccc3)c3ccccc3)N2C1=O
IC50 (second compound 0.01 µM): > 10000 nM
IC50 (second compound 0.0316 µM): 4450 nM
IC50 (second compound 0.1 µM): 61 nM
IC50 (second compound 0.316 µM): < 31.6 nM
IC50 (second compound 1 µM): < 31.6 nM
viability, T/C [1]: 61.6%
viability, T/C [2]: 63.6%
viability, T/C [3]: 56%
viability, T/C [4]: 51.8%
viability, T/C (second compound 0.01 µM, first compound 3.16 µM): 59.8%
viability, T/C (second compound 0.01 µM, first compound 10 µM): 61.1%
viability, T/C [5]: 52.4%
viability, T/C [6]: 54.8%
viability, T/C [7]: 61.9%
viability, T/C [8]: 46.2%
viability, T/C (second compound 0.0316 µM, first compound 3.16 µM): 60.7%
viability, T/C (second compound 0.0316 µM, first compound 10 µM): 37.8%
viability, T/C [9]: 49.4%
viability, T/C [10]: 52%
viability, T/C [11]: 48.6%
viability, T/C [12]: 43.1%
viability, T/C (second compound 0.1 µM, first compound 3.16 µM): 46.4%
viability, T/C (second compound 0.1 µM, first compound 10 µM): 43.6%
viability, T/C [13]: 43.1%
viability, T/C [14]: 41.3%
viability, T/C [15]: 41.2%
viability, T/C [16]: 43.9%
viability, T/C (second compound 0.316 µM, first compound 3.16 µM): 52.5%
viability, T/C (second compound 0.316 µM, first compound 10 µM): 45.4%
viability, T/C [17]: 44.1%
viability, T/C [18]: 45%
viability, T/C [19]: 46.4%
viability, T/C [20]: 40%
viability, T/C (second compound 1 µM, first compound 3.16 µM): 35.4%
viability, T/C (second compound 1 µM, first compound 10 µM): 35.9%

COc1c(OCCCN2CCOCC2)ccc2c3n(c(=NC(=O)c4cnc(N)nc4)nc12)CCN3 + CNC(C)C(=O)NC1CN(S(=O)(=O)c2cccc(S(=O)(=O)N3CCC4CCC(C(=O)NC(c5ccccc5)c5ccccc5)N4C(=O)C(NC(=O)C(C)NC)C3)c2)CCC2CCC(C(=O)NC(c3ccccc3)c3ccccc3)N2C1=O
IC50 (second compound 0.01 µM): 4.1 nM
IC50 (second compound 0.0316 µM): < 3.16 nM
IC50 (second compound 0.1 µM): < 3.16 nM
IC50 (second compound 0.316 µM): < 3.16 nM
IC50 (second compound 1 µM): < 3.16 nM
viability, T/C [21]: 56.5%
viability, T/C [22]: 28.1%
viability, T/C [1]: 13.5%
viability, T/C [2]: 5.19%
viability, T/C [3]: 1.61%
viability, T/C [4]: 0.4%
viability, T/C [23]: 38.4%
viability, T/C [24]: 26.1%
viability, T/C [5]: 8.33%
viability, T/C [6]: 2.99%
viability, T/C [7]: 2.16%
viability, T/C [8]: 0.41%
viability, T/C [25]: 37.3%
viability, T/C [26]: 27.9%
viability, T/C [9]: 9.81%
viability, T/C [10]: 2.85%
viability, T/C [11]: 1.49%
viability, T/C [12]: 0.35%
viability, T/C [27]: 31.4%
viability, T/C [28]: 22.4%
viability, T/C [13]: 9.6%
viability, T/C [14]: 2.64%
viability, T/C [15]: 1.51%
viability, T/C [16]: 0.29%
viability, T/C [29]: 27.5%
viability, T/C [30]: 20.3%
viability, T/C [17]: 6.75%
viability, T/C [18]: 3.45%
viability, T/C [19]: 1.17%
viability, T/C [20]: 0.36%

NC(=O)C(=Cn1cnc(-c2cc(C(F)(F)F)cc(C(F)(F)F)c2)n1)c1cncnc1 + CNC(C)C(=O)NC1CN(S(=O)(=O)c2cccc(S(=O)(=O)N3CCC4CCC(C(=O)NC(c5ccccc5)c5ccccc5)N4C(=O)C(NC(=O)C(C)NC)C3)c2)CCC2CCC(C(=O)NC(c3ccccc3)c3ccccc3)N2C1=O
IC50 (second compound 0.01 µM): 6.12 nM
IC50 (second compound 0.0316 µM): 3.91 nM
IC50 (second compound 0.1 µM): 15 nM
IC50 (second compound 0.316 µM): 4.49 nM
IC50 (second compound 1 µM): < 0.949 nM
viability, T/C (second compound 0.01 µM, first compound 0.000949 µM): 56.6%
viability, T/C (second compound 0.01 µM, first compound 0.003 µM): 53.5%
viability, T/C (second compound 0.01 µM, first compound 0.00949 µM): 49.4%
viability, T/C (second compound 0.01 µM, first compound 0.03 µM): 39.7%
viability, T/C (second compound 0.01 µM, first compound 0.0949 µM): 42%
viability, T/C (second compound 0.01 µM, first compound 0.3 µM): 32.8%
viability, T/C (second compound 0.0316 µM, first compound 0.000949 µM): 74.8%
viability, T/C (second compound 0.0316 µM, first compound 0.003 µM): 51.3%
viability, T/C (second compound 0.0316 µM, first compound 0.00949 µM): 40.7%
viability, T/C (second compound 0.0316 µM, first compound 0.03 µM): 43.8%
viability, T/C (second compound 0.0316 µM, first compound 0.0949 µM): 38.7%
viability, T/C (second compound 0.0316 µM, first compound 0.3 µM): 31.4%
viability, T/C (second compound 0.1 µM, first compound 0.000949 µM): 50.5%
viability, T/C (second compound 0.1 µM, first compound 0.003 µM): 56.4%
viability, T/C (second compound 0.1 µM, first compound 0.00949 µM): 49.7%
viability, T/C (second compound 0.1 µM, first compound 0.03 µM): 47.6%
viability, T/C (second compound 0.1 µM, first compound 0.0949 µM): 33.1%
viability, T/C (second compound 0.1 µM, first compound 0.3 µM): 27.7%
viability, T/C (second compound 0.316 µM, first compound 0.000949 µM): 52%
viability, T/C (second compound 0.316 µM, first compound 0.003 µM): 60.1%
viability, T/C (second compound 0.316 µM, first compound 0.00949 µM): 38.7%
viability, T/C (second compound 0.316 µM, first compound 0.03 µM): 29.7%
viability, T/C (second compound 0.316 µM, first compound 0.0949 µM): 34.3%
viability, T/C (second compound 0.316 µM, first compound 0.3 µM): 24.9%
viability, T/C (second compound 1 µM, first compound 0.000949 µM): 46%
viability, T/C (second compound 1 µM, first compound 0.003 µM): 39.5%
viability, T/C (second compound 1 µM, first compound 0.00949 µM): 38%
viability, T/C (second compound 1 µM, first compound 0.03 µM): 37.8%
viability, T/C (second compound 1 µM, first compound 0.0949 µM): 34.3%
viability, T/C (second compound 1 µM, first compound 0.3 µM): 25.6%

NC1CCC(NC2CC2c2ccccc2)CC1 (stereo not given) + CNC(C)C(=O)NC1CN(S(=O)(=O)c2cccc(S(=O)(=O)N3CCC4CCC(C(=O)NC(c5ccccc5)c5ccccc5)N4C(=O)C(NC(=O)C(C)NC)C3)c2)CCC2CCC(C(=O)NC(c3ccccc3)c3ccccc3)N2C1=O
IC50 (second compound 0.01 µM): > 100 nM
IC50 (second compound 0.0316 µM): > 100 nM
IC50 (second compound 0.1 µM): < 0.316 nM
IC50 (second compound 0.316 µM): > 100 nM
IC50 (second compound 1 µM): < 0.316 nM
viability, T/C (second compound 0.01 µM, first compound 0.000316 µM): 53.7%
viability, T/C (second compound 0.01 µM, first compound 0.001 µM): 72.9%
viability, T/C [21]: 72.5%
viability, T/C [22]: 66.5%
viability, T/C [1]: 65.1%
viability, T/C [2]: 61.5%
viability, T/C (second compound 0.0316 µM, first compound 0.000316 µM): 53%
viability, T/C (second compound 0.0316 µM, first compound 0.001 µM): 53.9%
viability, T/C [23]: 53.5%
viability, T/C [24]: 61.5%
viability, T/C [5]: 53.1%
viability, T/C [6]: 53%
viability, T/C (second compound 0.1 µM, first compound 0.000316 µM): 48.1%
viability, T/C (second compound 0.1 µM, first compound 0.001 µM): 54.7%
viability, T/C [25]: 48.7%
viability, T/C [26]: 55.5%
viability, T/C [9]: 52.3%
viability, T/C [10]: 56.1%
viability, T/C (second compound 0.316 µM, first compound 0.000316 µM): 53.6%
viability, T/C (second compound 0.316 µM, first compound 0.001 µM): 54%
viability, T/C [27]: 52.6%
viability, T/C [28]: 53.1%
viability, T/C [13]: 53.6%
viability, T/C [14]: 59.4%
viability, T/C (second compound 1 µM, first compound 0.000316 µM): 43.8%
viability, T/C (second compound 1 µM, first compound 0.001 µM): 50.9%
viability, T/C [29]: 42.6%
viability, T/C [30]: 44.8%
viability, T/C [17]: 50.2%
viability, T/C [18]: 56%
